Measured values published in ChEMBL document CHEMBL1201862, “PubChem BioAssay data set” (2004).
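Exposure lasted 48 hours, with cells grown in 96-well plates and compounds tested at five concentrations. At the GI50, growth is halved.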 Active and inactive are the calls of the source. No stated cut-off is given here; in the data, active = GI50 up to about 1.1 µM and inactive = higher. Peptide text beside a SMILES is read from it. * marks the point of attachment. Boc = CC(C)(C)OC(=O)*; OBn = c1ccc(CO*)cc1

Experiments:
Experiment in all cases: inhibition of tumour cell growth, NCI panel, 48 h
SK-OV-3 = system: SK-OV-3
OVCAR-5 = system: OVCAR-5
HT-29 = system: HT-29
Malme-3M = system: Malme-3M
TK-10 = system: TK-10
CCRF-CEM = system: CCRF-CEM
LOX IMVI = system: LOX IMVI
SR = system: SR
EKVX = system: EKVX
CAKI-1 = system: CAKI-1
OVCAR-8 = system: OVCAR-8
SW-620 = system: SW-620
ACHN = system: ACHN
UO-31 = system: UO-31
SK-MEL-5 = system: SK-MEL-5
MDA-MB-231 = system: MDA-MB-231
RXF 393 = system: RXF 393
OVCAR-3 = system: OVCAR-3
UACC-62 = system: UACC-62

SMILES | GI50 (SK-OV-3) | GI50 (OVCAR-5) | GI50 (HT-29) | GI50 (Malme-3M) | GI50 (TK-10) | GI50 (CCRF-CEM) | GI50 (LOX IMVI) | GI50 (SR) | GI50 (EKVX) | GI50 (CAKI-1) | GI50 (OVCAR-8) | GI50 (SW-620) | GI50 (ACHN) | GI50 (UO-31) | GI50 (SK-MEL-5) | GI50 (MDA-MB-231) | GI50 (RXF 393) | GI50 (OVCAR-3) | GI50 (UACC-62)
CC(=O)Nc1cc2c(cc1O)CC[C@@H]1[C@@H]2CC[C@]2(C)[C@@H](O)CC[C@@H]12 | > 100 µM (inactive) | 86.9 µM (inactive) | 30.4 µM (inactive) | 21.8 µM (inactive) | 49.7 µM (inactive) | 23.9 µM (inactive) | 34.6 µM (inactive) | 20.8 µM (inactive) | 33 µM (inactive) | 84.1 µM (inactive) | 44.3 µM (inactive) | 27.7 µM (inactive) | 41.6 µM (inactive) | 21.5 µM (inactive) | 22.4 µM (inactive) | 55 µM (inactive) | 43.3 µM (inactive) |  | 
CC(CO)(Nc1ccc([N+](=O)[O-])cc1[N+](=O)[O-])C(=O)O (stereo not drawn) |  | 32.6 µM (inactive) | 16.7 µM (inactive) | 18.7 µM (inactive) | 36.1 µM (inactive) |  | 22.5 µM (inactive) | 12.1 µM (inactive) | 29.2 µM (inactive) | 33.8 µM (inactive) | 34.8 µM (inactive) | 16.7 µM (inactive) | 18.7 µM (inactive) | 15.9 µM (inactive) | 20.5 µM (inactive) | 79.8 µM (inactive) | 12.2 µM (inactive) | 22.2 µM (inactive) | 33.7 µM (inactive)
Cc1csc2c(=O)n(C3OC(CO)C(O)C3O)c(=O)[nH]c12 (stereo not drawn) |  | > 100 µM (inactive) | > 100 µM (inactive) | > 100 µM (inactive) | 39.5 µM (inactive) | > 100 µM (inactive) | > 100 µM (inactive) | > 100 µM (inactive) | > 100 µM (inactive) | > 100 µM (inactive) | > 100 µM (inactive) | > 100 µM (inactive) | > 100 µM (inactive) | > 100 µM (inactive) | > 100 µM (inactive) | > 100 µM (inactive) | > 100 µM (inactive) | > 100 µM (inactive) | 
O=C1N=C(SC(SC2=NC(=O)C3(NN2)c2ccccc2-c2ccccc23)=C(SC2=NC(=O)C3(NN2)c2ccccc2-c2ccccc23)SC2=NC(=O)C3(NN2)c2ccccc2-c2ccccc23)NNC12c1ccccc1-c1ccccc12 | > 10 µM (inactive) |  | 6.61 µM (inactive) | > 10 µM (inactive) | > 10 µM (inactive) | 5.21 µM (inactive) | > 10 µM (inactive) | 3.24 µM (inactive) | 2.59 µM (inactive) | > 10 µM (inactive) | 7.21 µM (inactive) | > 10 µM (inactive) | 2.07 µM (inactive) | 3.18 µM (inactive) | 3.22 µM (inactive) | 4.71 µM (inactive) | > 10 µM (inactive) |  | 6.53 µM (inactive)
CCCC(=O)Nc1cc(/C=C/C(=O)N2CC(CCl)c3ccc([N+](=O)[O-])cc32)n(C)c1 (stereo not drawn) | > 100 µM (inactive) | > 100 µM (inactive) | 21.1 µM (inactive) | > 100 µM (inactive) | 20 µM (inactive) | 0.568 µM (active) | 73.5 µM (inactive) | > 100 µM (inactive) | > 100 µM (inactive) | 57.5 µM (inactive) | 30.3 µM (inactive) | > 100 µM (inactive) | 50.9 µM (inactive) | > 100 µM (inactive) |  | 21.6 µM (inactive) | > 100 µM (inactive) | > 100 µM (inactive) | > 100 µM (inactive)
N=c1oc2c(Cl)cc(Cl)cc2cc1C(=O)Nc1ccccn1 | 67.5 µM (inactive) | > 100 µM (inactive) | 91.2 µM (inactive) | > 100 µM (inactive) | 34.5 µM (inactive) | 22 µM (inactive) |  | 23.1 µM (inactive) | 67.3 µM (inactive) | > 100 µM (inactive) |  | 43.6 µM (inactive) | 22 µM (inactive) | 59 µM (inactive) | > 100 µM (inactive) | 69.2 µM (inactive) | 19.8 µM (inactive) | 24.6 µM (inactive) | 20.6 µM (inactive)
C#CCOC(=O)C=[N+]=[N-] | > 10 µM (inactive) | > 10 µM (inactive) | > 10 µM (inactive) | > 10 µM (inactive) |  | > 10 µM (inactive) | > 10 µM (inactive) | > 10 µM (inactive) | > 10 µM (inactive) |  | > 10 µM (inactive) | > 10 µM (inactive) | > 10 µM (inactive) | > 10 µM (inactive) |  | > 10 µM (inactive) | > 10 µM (inactive) | > 10 µM (inactive) | > 10 µM (inactive)
CC(=O)OC[C@@]12C[C@H]3C(=O)C(C)(C)C[C@H]3[C@]1(C)[C@@H](OC(C)=O)[C@]1(O)[C@H]([C@@H](OC(=O)c3ccccc3)[C@@H](C)[C@H]1OC(C)=O)[C@H]2OC(C)=O | > 20 µM (inactive) | > 20 µM (inactive) |  |  | > 20 µM (inactive) | 6.21 µM (inactive) | > 20 µM (inactive) | > 20 µM (inactive) | > 20 µM (inactive) | > 20 µM (inactive) | > 20 µM (inactive) | > 20 µM (inactive) | > 20 µM (inactive) | > 20 µM (inactive) | > 20 µM (inactive) | > 20 µM (inactive) | > 20 µM (inactive) | > 20 µM (inactive) | > 20 µM (inactive)
CC1(C)OC(=S)N(c2ccccc2)C12C=Cc1ccccc1O2 (stereo not drawn) | 16.6 µM (inactive) | > 100 µM (inactive) | 56.6 µM (inactive) |  | > 100 µM (inactive) | 27.8 µM (inactive) | > 100 µM (inactive) | 4.26 µM (inactive) | 53.5 µM (inactive) | > 100 µM (inactive) | > 100 µM (inactive) | 72.3 µM (inactive) | > 100 µM (inactive) | 45.6 µM (inactive) | 56.5 µM (inactive) | > 100 µM (inactive) | > 100 µM (inactive) | > 100 µM (inactive) | 75.5 µM (inactive)
Fc1ccccc1-c1nn2c(C34CC5CC(CC(C5)C3)C4)nnc2s1 | > 100 µM (inactive) | > 100 µM (inactive) | > 100 µM (inactive) | > 100 µM (inactive) |  | > 100 µM (inactive) | > 100 µM (inactive) | > 100 µM (inactive) | > 100 µM (inactive) | > 100 µM (inactive) | > 100 µM (inactive) | > 100 µM (inactive) | > 100 µM (inactive) | > 100 µM (inactive) | > 100 µM (inactive) | > 100 µM (inactive) | > 100 µM (inactive) | > 100 µM (inactive) | > 100 µM (inactive)
CC(C)C1=CC23CCC4C(C)(C(=O)O)CCCC4(C)C2CC1C1C(=O)N(c2ccc(N4C(=O)C5C6CC7C8(C)CCCC(C)(C(=O)O)C8CCC7(C=C6C(C)C)C5C4=O)cc2)C(=O)C13 (stereo not drawn) |  | 10.3 µM (inactive) | 2.45 µM (inactive) | 14.1 µM (inactive) | 16.4 µM (inactive) | 3.85 µM (inactive) |  | 3.59 µM (inactive) | 4.09 µM (inactive) |  | 4.89 µM (inactive) | 8.41 µM (inactive) | 5.9 µM (inactive) | 18.5 µM (inactive) | 3.44 µM (inactive) | 4.58 µM (inactive) | 11.7 µM (inactive) | 5.71 µM (inactive) | 
CC(C)(C)OC(=O)N(CCCN)CCCCN | > 100 µM (inactive) | > 100 µM (inactive) | > 100 µM (inactive) |  | > 100 µM (inactive) | > 100 µM (inactive) |  | > 100 µM (inactive) | > 100 µM (inactive) | > 100 µM (inactive) | > 100 µM (inactive) | > 100 µM (inactive) | > 100 µM (inactive) | > 100 µM (inactive) | > 100 µM (inactive) | 0.0673 µM (active) | > 100 µM (inactive) | > 100 µM (inactive) | > 100 µM (inactive)
C#C[C@]1(O)[C@@H](CO)O[C@@H](n2ccc(=O)[nH]c2=O)[C@@H]1O | 1.97 µM (inactive) | 0.406 µM (active) | 0.0171 µM (active) | 0.288 µM (active) | 0.413 µM (active) | 0.19 µM (active) | 0.0246 µM (active) | 62.4 µM (inactive) | 4.72 µM (inactive) | < 0.0161 µM (active) | < 0.01 µM (active) | 0.082 µM (active) | 0.0272 µM (active) | 0.0278 µM (active) | 0.441 µM (active) | 0.251 µM (active) |  | 0.513 µM (active) | 0.156 µM (active)
CC(=O)O[C@H]1C(=O)[C@@]2(C)[C@H]([C@H](OC(=O)c3cccc([N+](=O)[O-])c3)[C@]3(O)C[C@H](OC(=O)[C@H](O)[C@@H](NC(=O)c4ccccc4)c4ccccc4)C(C)=C1C3(C)C)[C@]1(OC(C)=O)CO[C@@H]1C[C@@H]2O | 0.00703 µM (active) | 0.0105 µM (active) | 0.0043 µM (active) |  | 0.0495 µM (active) | 0.00479 µM (active) | 0.00558 µM (active) | 0.00447 µM (active) | 2.78 µM (inactive) | 0.241 µM (active) | 0.00785 µM (active) | 0.00706 µM (active) | 0.151 µM (active) | 0.568 µM (active) | 0.00582 µM (active) | 0.0122 µM (active) | 0.0133 µM (active) | < 0.0025 µM (active) | 0.0153 µM (active)
CC(C)CC(NC(=O)OC(C)(C)C)C(=O)NC(CC(=O)OCc1ccccc1)C(N)=O (stereo not drawn) (Boc-Leu-Asp(OBn)-NH2; configuration not given here) | > 100 µM (inactive) | > 100 µM (inactive) | > 100 µM (inactive) | > 100 µM (inactive) | > 100 µM (inactive) |  | > 100 µM (inactive) | > 100 µM (inactive) | > 100 µM (inactive) | > 100 µM (inactive) | > 100 µM (inactive) | > 100 µM (inactive) | > 100 µM (inactive) | > 100 µM (inactive) | > 100 µM (inactive) | > 100 µM (inactive) | > 100 µM (inactive) | > 100 µM (inactive) | > 100 µM (inactive)
